For assay [1], the target named is T1, Adenosine receptor A1 (Homo sapiens) (UniProt P30542).
T1 sequence (whole entry): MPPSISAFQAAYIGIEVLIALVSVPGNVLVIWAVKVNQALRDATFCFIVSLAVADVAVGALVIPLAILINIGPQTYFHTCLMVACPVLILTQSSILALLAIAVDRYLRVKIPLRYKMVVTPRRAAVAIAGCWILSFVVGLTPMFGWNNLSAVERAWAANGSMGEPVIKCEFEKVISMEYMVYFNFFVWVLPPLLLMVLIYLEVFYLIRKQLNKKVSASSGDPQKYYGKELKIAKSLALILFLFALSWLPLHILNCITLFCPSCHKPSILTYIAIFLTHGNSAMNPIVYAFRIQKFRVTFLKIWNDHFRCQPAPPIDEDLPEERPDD
Briefly: Displacement of [3H]CCPA from human recombinant adenosine A1 receptor expressed in CHO cells at 10 uM. It is filed as cell-based. (In general: Loss of bound radioactivity is the signal in a displacement assay; it reports binding, not function.)

In assay [2] the target is Adenosine receptor A2a (Homo sapiens) (UniProt P29274). Briefly: Displacement of [3H]CGS21680 from human recombinant adenosine A2A receptor expressed in HEK293 cells at 10 uM. The assay is classed as cell-based.
Adenosine receptor A2a (Homo sapiens), sequence (P29274 whole entry): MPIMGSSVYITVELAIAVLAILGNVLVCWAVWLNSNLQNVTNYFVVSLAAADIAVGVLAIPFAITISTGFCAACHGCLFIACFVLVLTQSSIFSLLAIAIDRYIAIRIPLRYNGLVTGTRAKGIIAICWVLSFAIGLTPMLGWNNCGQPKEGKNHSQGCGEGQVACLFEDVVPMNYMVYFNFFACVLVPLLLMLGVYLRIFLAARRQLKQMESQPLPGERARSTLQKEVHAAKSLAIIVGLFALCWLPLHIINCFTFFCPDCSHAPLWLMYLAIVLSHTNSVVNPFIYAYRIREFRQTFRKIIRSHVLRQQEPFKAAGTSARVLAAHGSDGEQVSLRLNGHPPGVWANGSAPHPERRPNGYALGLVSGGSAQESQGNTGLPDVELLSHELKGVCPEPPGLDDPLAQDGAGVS
Assay [3] concerns the target T2, Adenosine receptor A3 (Homo sapiens) (UniProt P0DMS8).
T2 sequence (whole entry): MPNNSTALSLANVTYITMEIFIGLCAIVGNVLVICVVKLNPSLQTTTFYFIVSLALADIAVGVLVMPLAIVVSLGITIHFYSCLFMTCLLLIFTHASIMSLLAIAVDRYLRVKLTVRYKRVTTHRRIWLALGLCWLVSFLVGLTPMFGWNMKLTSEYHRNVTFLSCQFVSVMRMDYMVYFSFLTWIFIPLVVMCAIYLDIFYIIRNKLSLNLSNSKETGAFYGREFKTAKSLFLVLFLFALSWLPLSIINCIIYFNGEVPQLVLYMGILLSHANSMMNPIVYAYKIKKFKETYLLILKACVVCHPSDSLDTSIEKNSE
The assay is described as follows: Increase in efficacy of stimulation of [35S]GTPgammaS binding to human adenosine A3 receptor expressed in CHO cells at 10 uM by liquid scintillation counting relative to C1-IB-MECA. The assay is classed as functional, cell-based. For orientation: Binding of GTPγS marks nucleotide exchange on a G protein.

For assay [4], the target named is T2, Adenosine receptor A3 (Homo sapiens). Briefly: Decrease in dissociation of [125I]I-AB-MECA from human recombinant adenosine A3 receptor expressed in CHO cells at 10 uM after 60 mins relative to control. The assay is classed as cell-based. The arrangement: scale not given: the % may be the effect or the level left.
Assay [5] shares this target. The assay is described as follows: Displacement of [125I]I-AB-MECA from human recombinant adenosine A3 receptor expressed in CHO cells at 10 uM. The assay is classed as cell-based.

SMILES strings stand for the structures.

Take `Clc1cc(Cl)cc(Nc2nc3ccccc3c3[nH]c(C4CCCCC4)nc23)c1`: the Activity in assay [1] is 16.7%; in assay [2] it was -11.4%; in assay [3], 209%; in assay [4], 184%; in assay [5], 32.7%.
As for `FC(F)(F)c1cc(Nc2nc3ccccc3c3nc(C4CCCCC4)[nH]c23)cc(C(F)(F)F)c1`, the Activity turned out to be 7.2% in assay [1]; 15.6% in assay [2]; 143% in assay [3]; 137% in assay [4]; 21.8% in assay [5].
On to `c1ccc2c(c1)nc(Nc1ccc3c(c1)OCO3)c1nc(C3CCCCC3)[nH]c12`, for which the Activity in assay [1] was determined as 65.4%; in assay [2], 49%; in assay [3], 166%; in assay [4], 185%; in assay [5] it was 83.9%.
For `Clc1ccc(Nc2nc3ccccc3c3[nH]c(C4CCNCC4)nc23)cc1Cl`, the Activity in assay [1] came to 10.9%; in assay [2], 7%; in assay [4], 101%; in assay [5], 52.8%.
`Clc1ccc(Nc2nc3ccccc3c3[nH]c(C4CCC4)nc23)cc1Cl`: the Activity in assay [1] is -5.2%.
For `Clc1ccc(Nc2nc3ccccc3c3[nH]c([C@H]4C[C@H]5CC[C@@H]4C5)nc23)cc1Cl`, the Activity in assay [1] turned out to be 77.9%; in assay [2] it was 5.8%; in assay [4], 187%; in assay [5], 61.2%.
Regarding `O=C(c1ccccc1)N1CCC(c2nc3c(Nc4ccccc4)nc4ccccc4c3[nH]2)CC1`, the Activity in assay [1] was found to be 12.4%; in assay [2], 43.4%; in assay [4], 92%; in assay [5] it was 35.3%.
For `Fc1cc(F)cc(Nc2nc3ccccc3c3[nH]c(C4CCCCC4)nc23)c1`, the Activity in assay [1] stood at 36.6%; in assay [2], 17.2%; in assay [3], 171%; in assay [4] it was 188%; in assay [5], 70.1%.
Take `c1cncc(Nc2nc3ccccc3c3[nH]c(C4CCCCC4)nc23)c1`: the Activity came to 73.1% in assay [1]; 78.1% in assay [2]; 119% in assay [3]; 114% in assay [4]; 64.8% in assay [5].
For `Clc1ccc(Nc2nc3ccccc3c3[nH]c(C4CCOCC4)nc23)cc1Cl`, the Activity in assay [1] was 37.2%; in assay [2], -11.9%; in assay [4], 115%; in assay [5], 69.6%.
In the case of `O=C1c2ccccc2C(=O)N1[C@H]1CC[C@@H](c2nc3c(Nc4ccc(Cl)c(Cl)c4)nc4ccccc4c3[nH]2)CC1`, the Activity is 21.4% in assay [1], 56.8% in assay [2], 102% in assay [4] and 5.6% in assay [5].
Consider `Clc1ccc(Nc2nc3ccccc3c3[nH]c(C45CC6CC(CC4C6)C5)nc23)cc1Cl`, for which the Activity in assay [1] was 14.5%; in assay [2] it was -17.3%; in assay [4], 139%; in assay [5] it was 3.3%.
`Clc1ccc(Nc2nc3ccccc3c3[nH]c(C4CCCC4)nc23)cc1Cl`: the Activity in assay [2] amounted to 0%.
Turning to `Clc1ccc(Nc2nc3ccccc3c3[nH]c(C4CCN(Cc5ccccc5)CC4)nc23)cc1Cl`, the Activity in assay [1] is 17.8%; in assay [2] it was -3.1%; in assay [4], 93%; in assay [5], 46.3%.
Consider `Fc1ccc(Nc2nc3ccccc3c3[nH]c(C4CCCCC4)nc23)cc1F`, for which the Activity in assay [1] came to 14.6%; in assay [2], 26.5%; in assay [3], 197%; in assay [4], 187%; in assay [5] it was 68.8%.
For the molecule `O=C(c1ccccc1)N1CCC(c2nc3c(Nc4ccc(Cl)c(Cl)c4)nc4ccccc4c3[nH]2)CC1`, the Activity stood at 20.2% in assay [1], 8.8% in assay [2], 91% in assay [4] and 29.8% in assay [5].
Turning to `COc1ccc(Nc2nc3ccccc3c3[nH]c(C4CCCCC4)nc23)cc1OC`, the Activity in assay [1] is 75.6%; in assay [2] it was 93.8%; in assay [3], 182%; in assay [4], 173%; in assay [5] it was 98.4%.
The corresponding values for `N#Cc1ccc(Nc2nc3ccccc3c3nc(C4CCCCC4)[nH]c23)cc1C#N` are 33.1%, 37.2%, 138%, 129% and 42.2%.
Regarding `Clc1ccc(Nc2nc3ccccc3c3[nH]c(C4CCCCCC4)nc23)cc1Cl`, the Activity in assay [1] was -4.2%; in assay [2], -2.2%.
As to `Clc1ccc(Nc2nc3ccccc3c3[nH]c([C@H]4C[C@H]5CC[C@H]4C5)nc23)cc1Cl`, the Activity came out at 44.8% in assay [1], 39.4% in assay [2], 168% in assay [4] and 50.5% in assay [5].
Consider `Clc1cccc(Nc2nc3ccccc3c3[nH]c(C4CCCCC4)nc23)c1`, for which the Activity was 53.3% in assay [1]; 42.8% in assay [2]; 200% in assay [3]; 194% in assay [4]; 79.2% in assay [5].
As to `N[C@H]1CC[C@@H](c2nc3c(Nc4ccc(Cl)c(Cl)c4)nc4ccccc4c3[nH]2)CC1`, the Activity in assay [1] is 31.7%; in assay [2], 15.8%; in assay [4], 107%; in assay [5] it was 4.2%.
Take `Clc1ccc(Nc2nc3ccccc3c3[nH]c(C45CC6CC(CC(C6)C4)C5)nc23)cc1Cl`: the Activity was 13.8% in assay [1], -4.4% in assay [2], 196% in assay [4] and 17.2% in assay [5].
For `Clc1ccc(Nc2nc3ccccc3c3[nH]c(C4CCCCC4)nc23)c(Cl)c1`, the Activity stood at 48% in assay [1]; 67.2% in assay [2]; 187% in assay [3]; 174% in assay [4]; 43.9% in assay [5].
With `Clc1ccc(Nc2nc3ccccc3c3nc(C4CCCCC4)[nH]c23)cc1Cl`, the Activity in assay [1] was 37%; in assay [2], -11.2%.

The values above are taken from ChEMBL document CHEMBL1153383, “Novel 2- and 4-substituted 1H-imidazo[4,5-c]quinolin-4-amine derivatives as allosteric modulators of the A3 adenosine receptor” (J Med Chem, 2009).
